Literature values, collected in patent publication US4503068A, “Use of prostaglandin analogues to treat cytodamage” (priority 1982, dated 1985).

Tests used:
[1] = system: isolate perfused cat liver; conditions: cited from earlier work
[2] = system: endotoxin shock; conditions: dog; cited from earlier work
[3] = system: ischemic myocardial tissue; conditions: cat; cited from earlier work
[4] = system: endotoxin-induced lung injury; conditions: sheep; cited from earlier work

CCCCC[C@H](O)/C=C/[C@@H]1[C@H]2C/C(=C/CCCC(=O)O)O[C@H]2C[C@H]1O [PGI2, (5Z,13E)-(9α,11α,15S)-6,9-epoxy-11,15-dihydroxyprosta-5,13-dienoic acid]
prevents and is useful in treating: effect on hypoxia in the isolate perfused cat liver [1] | effect on endotoxin shock [2] | effect on ischemic myocardial tissue [3] | effect on endotoxin-induced lung injury [4]
